“And” between values parts separate entries of the source, which are not always exact repeats. Equal entries are not always repeated.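 Exposure lasted 48 hours, with cells grown in 96-well plates and compounds tested at five concentrations. GI50 is the concentration that inhibits growth by half. TGI denotes the concentration required for complete inhibition of growth.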
tested on: K-562 leukemia; assay: NCI-60 cell line screen, 48 h

Row | SMILES | GI50 | TGI [µM]
1 | OC[C@H]1C[C@](O)(c2ccc(Cl)cc2)[C@@H](c2ccc(Cl)cc2)O1 | 24.9 µM | 76.5
2 | CC(C)N(C(=O)C12C3C4C5(C#N)C3C1(C#N)C5C42I)C(C)C (stereo not drawn) |  | > 59.4
3 | C=COCCCOc1ccccc1 |  | > 100
4 | COc1ccc2c3c([nH]c2c1[N+](=O)[O-])C(C)=NCC3 |  | > 100
5 | C=C(c1nc2ccc(Cl)cc2[nH]c1=O)C(O)c1ccc(C(O)C(=O)c2nc3ccc(Cl)cc3[nH]c2=O)cc1 (stereo not drawn) |  | > 100
6 | O=c1c2sc(=S)n(-c3ccc(F)cc3)c2ncn1Cc1ccc(F)cc1F | > 100 µM | > 100
7 | CC(C)(C)CC(C)(C)c1cc2c(O)c(c1)Cc1cc(C(C)(C)CC(C)(C)C)cc(c1O)Cc1cc(C(C)(C)CC(C)(C)C)cc(c1O)Cc1cc(C(C)(C)CC(C)(C)C)cc(c1O)C2 |  | > 100
8 | Cc1cc([N+](=O)[O-])ccc1Nc1cccc(Cl)c1C |  | 33.8
9 | Cn1cc(CO)c2c1C(=O)C=C(N1CC1)C2=O | 0.0224 µM | 11.1
10 | Cc1nn(-c2ccccc2)c2nc(N3CCOCC3)nnc12 |  | > 100
11 | CC(C)c1ccc2c(c1)CC[C@@H]1[C@@](C)(C(=O)O)CCC[C@]21C | 2.5 µM | 9.2
12 | CCOc1ccccc1C=C1c2ccccc2C(=O)c2ccccc21 |  | > 100
13 | O=C(CCn1[nH]c(=O)c(Cl)c(Cl)c1=O)NO |  | > 100
14 | CC(C)=CC/C=C(/C)[C@H]1CC[C@]2(C)[C@@H]1CC[C@@H]1[C@@]3(C)CCCNC(C)(C)[C@@H]3CC[C@]12C | 1.79 µM | 5.3
15 | [N-]=[N+]=NC12CC3C4CC5CC3C(C1)C(C5)C4C2 |  | > 100
16 | CN(C)c1nc2ccccc2[nH]1 |  | > 100
17 | NNC(=S)N/N=C(\CC1OC(=O)c2ccccc21)c1ccccc1O (stereo not drawn) |  | > 100
18 | COC(=O)C1=C(O)c2cc(OC)c(OC)cc2C(c2ccc(OC)c(OC)c2)C1 (stereo not drawn) |  | > 100
19 | COC1(OC)CC2C(=O)N(Cc3ccccc3)C1C(S(=O)(=O)c1ccccc1)C2S(=O)(=O)c1ccccc1 (stereo not drawn) |  | 46.2

Row | SMILES | GI50 | TGI [µM]
20 | Cc1cc(CC(O)c2ccc(Cl)c(Cl)c2)nc(=O)[nH]1 (stereo not drawn) |  | > 100
21 | COC(=O)C(=Cc1cc(OC)ccc1OC)C(=O)OC |  | 53.6
22 | CC1=NNC(=O)C2CCC(=O)N12 (stereo not drawn) |  | > 100
23 | CC(C)c1ccccc1NC(=O)CCc1n[nH]c(=S)o1 |  | > 73.1
24 | CCCCC(C(=O)C(=O)NC1C2CC3CC(C2)CC1C3)C(=O)C(C)C (stereo not drawn) |  | > 100
25 | COc1ccc(CN2C(=O)/C(=C\C(=O)c3ccc(OCCN4CCCCC4)cc3)c3ccccc32)cc1 | 2.31 µM | 10.4
26 | COC(=O)c1cc2c(s1)C(=O)c1ccccc1-2 |  | > 100
27 | NC(=O)NC1C(c2ccccc2)=C1c1ccccc1 |  | 43.1
28 | Cn1c2c(c3ccccc31)C1CCCCCCC1C1C(=O)OC(=O)C21 (stereo not drawn) |  | 75.3
29 | Cc1ccc(S(=O)(=O)N(CC(=O)O)c2ccccc2)cc1 |  | > 100
30 | COc1ccc(C(=O)C(c2ccc(OC)cc2)C2(O)C(=O)Nc3ccc([N+](=O)[O-])cc32)cc1 (stereo not drawn) |  | > 100
31 | O=C(/C=C/c1ccccc1O)c1ccccc1O |  | > 100
32 | Cc1nc2c(-c3cnc(N)nc3)nc(N3CCOCC3)nc2n1C(C)C | 1 µM and 0.661 µM | > 100
33 | CCCCCCNC(=O)c1cc(NCc2cc(O)ccc2O)ccc1O | 2.71 µM | 12.8
34 | N#CC(N)(C(=O)CCC(=O)Nc1cccc(Cl)c1)c1ccc(Cl)cc1 (stereo not drawn) |  | > 100
35 | S=C(Nc1ccccc1)N(/N=C/C=C/c1ccccc1)c1nnc(-c2ccccc2)c(-c2ccccc2)n1 |  | > 100
36 | CN(C)N=Nc1ccc(NC=O)cc1 |  | > 100
37 | C=C1C(=O)OC2CCN3CC=C(COC(=O)C(C)(O)C4(CO4)C1C)C23 (stereo not drawn) |  | > 100

tested on: MDA-MB-435; assay: NCI-60 cell line screen, 48 h

Row | SMILES | GI50 | TGI
38 | OC[C@H]1C[C@](O)(c2ccc(Cl)cc2)[C@@H](c2ccc(Cl)cc2)O1 | 22.9 µM | 47.8 µM
39 | C=COCCCOc1ccccc1 | > 100 µM | > 100 µM
40 | C=C(c1nc2ccc(Cl)cc2[nH]c1=O)C(O)c1ccc(C(O)C(=O)c2nc3ccc(Cl)cc3[nH]c2=O)cc1 (stereo not drawn) |  | > 100 µM
41 | O=c1c2sc(=S)n(-c3ccc(F)cc3)c2ncn1Cc1ccc(F)cc1F | > 100 µM | > 100 µM
42 | C=CCCCCC/C=C\[C@H](O)C#CC#C/C=C/CO | 39.8 µM | > 100 µM
43 | Cn1cc(CO)c2c1C(=O)C=C(N1CC1)C2=O | < 0.01 µM | 0.04 µM
44 | CC(C)c1ccc2c(c1)CC[C@@H]1[C@@](C)(C(=O)O)CCC[C@]21C | 10.9 µM | 29.5 µM
45 | CC(C)=CC/C=C(/C)[C@H]1CC[C@]2(C)[C@@H]1CC[C@@H]1[C@@]3(C)CCCNC(C)(C)[C@@H]3CC[C@]12C | 1.83 µM | 3.49 µM
46 | CCCCCCCCCCCCCC1=NC(C)(C)CN1C(C)C | 1.51 µM | 3.08 µM
47 | COc1ccc(CN2C(=O)/C(=C\C(=O)c3ccc(OCCN4CCCCC4)cc3)c3ccccc32)cc1 | 3.12 µM | 12.3 µM
48 | NC(=O)NC1C(c2ccccc2)=C1c1ccccc1 |  | 40.3 µM
49 | Cc1nc2c(-c3cnc(N)nc3)nc(N3CCOCC3)nc2n1C(C)C | 0.182 µM and 0.113 µM | 1.32 µM and 1.16 µM
50 | CCCCCCNC(=O)c1cc(NCc2cc(O)ccc2O)ccc1O | 9.48 µM | 22.1 µM
51 | CN1CCN(CCOc2ccc(-c3cnc4c(-c5ccccc5F)cnn4c3)cc2)CC1 | 1.7 µM | 3.1 µM
52 | CN(C)N=Nc1ccc(NC=O)cc1 |  | > 100 µM
53 | C=C1C(=O)OC2CCN3CC=C(COC(=O)C(C)(O)C4(CO4)C1C)C23 (stereo not drawn) |  | > 100 µM

tested on: NCI-H226 lung; assay: NCI-60 cell line screen, 48 h

Row | SMILES | GI50 [µM] | TGI [µM]
54 | OC[C@H]1C[C@](O)(c2ccc(Cl)cc2)[C@@H](c2ccc(Cl)cc2)O1 | 26.4 | 72.8
55 | CC(C)N(C(=O)C12C3C4C5(C#N)C3C1(C#N)C5C42I)C(C)C (stereo not drawn) |  | > 100
56 | C=COCCCOc1ccccc1 |  | > 100
57 | COc1cc2nc(-c3ccc(Cl)cc3)cc(OCCCN3CCCCC3)c2cc1OC | 1.12 | 3.73
58 | COc1ccc2c3c([nH]c2c1[N+](=O)[O-])C(C)=NCC3 |  | > 100
59 | C=C(c1nc2ccc(Cl)cc2[nH]c1=O)C(O)c1ccc(C(O)C(=O)c2nc3ccc(Cl)cc3[nH]c2=O)cc1 (stereo not drawn) |  | > 100
60 | O=c1c2sc(=S)n(-c3ccc(F)cc3)c2ncn1Cc1ccc(F)cc1F | > 100 | > 100
61 | C=CCCCCC/C=C\[C@H](O)C#CC#C/C=C/CO | 15.2 | 31
62 | Cc1cc([N+](=O)[O-])ccc1Nc1cccc(Cl)c1C |  | 34.9
63 | CC1=C(C(=O)Nc2ccccc2)C(c2ccccc2)C(C(=O)Nc2ccccc2)=C(C)N1 |  | > 100
64 | O=C(CCn1[nH]c(=O)c(Cl)c(Cl)c1=O)NO |  | > 100
65 | CC(C)=CC/C=C(/C)[C@H]1CC[C@]2(C)[C@@H]1CC[C@@H]1[C@@]3(C)CCCNC(C)(C)[C@@H]3CC[C@]12C | 3.75 | 16.8
66 | [N-]=[N+]=NC12CC3C4CC5CC3C(C1)C(C5)C4C2 |  | > 100
67 | NNC(=S)N/N=C(\CC1OC(=O)c2ccccc21)c1ccccc1O (stereo not drawn) |  | 95.4
68 | COC(=O)C1=C(O)c2cc(OC)c(OC)cc2C(c2ccc(OC)c(OC)c2)C1 (stereo not drawn) |  | > 100
69 | COC1(OC)CC2C(=O)N(Cc3ccccc3)C1C(S(=O)(=O)c1ccccc1)C2S(=O)(=O)c1ccccc1 (stereo not drawn) |  | 35.2
70 | Cc1cc(CC(O)c2ccc(Cl)c(Cl)c2)nc(=O)[nH]1 (stereo not drawn) |  | 92
71 | CCCCCCCCCCCCCC1=NC(C)(C)CN1C(C)C | 1.72 | 3.51
72 | COC(=O)C(=Cc1cc(OC)ccc1OC)C(=O)OC |  | > 100
73 | CC1=NNC(=O)C2CCC(=O)N12 (stereo not drawn) |  | > 100
74 | CC(C)c1ccccc1NC(=O)CCc1n[nH]c(=S)o1 |  | > 100
75 | CCCCC(C(=O)C(=O)NC1C2CC3CC(C2)CC1C3)C(=O)C(C)C (stereo not drawn) |  | > 100
76 | COc1ccc(CN2C(=O)/C(=C\C(=O)c3ccc(OCCN4CCCCC4)cc3)c3ccccc32)cc1 | 14.9 | 32.2
77 | COC(=O)c1cc2c(s1)C(=O)c1ccccc1-2 |  | > 100
78 | NC(=O)NC1C(c2ccccc2)=C1c1ccccc1 |  | 25.1
79 | Cn1c2c(c3ccccc31)C1CCCCCCC1C1C(=O)OC(=O)C21 (stereo not drawn) |  | > 100
80 | COc1ccc(C(=O)C(c2ccc(OC)cc2)C2(O)C(=O)Nc3ccc([N+](=O)[O-])cc32)cc1 (stereo not drawn) |  | > 100
81 | O=C(/C=C/c1ccccc1O)c1ccccc1O |  | > 100
